Measured values reported in EPA's ToxValDB 9.5 (doi:10.2903/j.efsa.2014.3237).
≈ marks a conversion by molar mass, not a printed value.

What was measured:
Mus musculus = details: chronic; duration: 18 months; histopathology: neoplastic
Cyprinus carpio = details: acute; duration: 96 hours; mortality
Pimephales promelas = details: chronic/long-term; duration: 28 days; growth
Tagia sp. = details: mortality
Daphnia magna = details: chronic/long-term; duration: 21 days; reproduction
Apis mellifera = details: acute; duration: 48 hours; oral; unspecified; mortality
Colinus virginianus = details: for LD50: acute, oral
Bibionidae = details: chronic/long-term; duration: 28 days; development
Oryctolagus sp. = details: reproduction developmental; body weight
Aphidius rhopalosiphi = experiment: LR50; higher = less toxic; details: acute; duration: 48 hours; mortality
Typhlodromus pyri = experiment: LR50; higher = less toxic; details: acute; duration: 7 days; mortality

SMILES: Cc1c(Br)c2ccc(F)cc2n1S(=O)(=O)c1ncn(S(=O)(=O)N(C)C)n1 [Amisulbrom]
- NOAEL (Mus musculus): 11.6 mg/kg-day
- LC50 (Cyprinus carpio): 0.0229 mg/L (≈ 0.0491 µM)
- NOEC (Pimephales promelas): 0.037 mg/L
- LC50 (Tagia sp.; acute, duration: 14 days): > 1000 mg/kg
- NOEC (Tagia sp.; chronic/long-term, duration: 28 days): 93.7 mg/kg
- NOEC (Daphnia magna): 0.0197 mg/L
- LD50 (Rattus norvegicus; acute, oral): > 5000 mg/kg-day
- NOAEL (Rattus norvegicus; chronic, duration: 2 years, histopathology: neoplastic): 11.1 mg/kg-day
- NOAEL (Rattus norvegicus; reproduction developmental, reproduction): 48.5 mg/kg-day
- LD50 (Apis mellifera): > 100 µg/piece
- LD50 (Colinus virginianus): > 2000 mg/kg-day
- LD50 (Colinus virginianus; diet): > 1080 mg/kg-day
- NOEC (Colinus virginianus; reproduction developmental): 34.2 mg/kg-day
- NOEC (Bibionidae): 0.111 mg/L
- NOAEL (Oryctolagus sp.): 30 mg/kg-day
- LR50 (Aphidius rhopalosiphi): > 1000 g/ha
- LR50 (Typhlodromus pyri): > 1000 g/ha
